Measured values reported in article PMC4245888 (Frontiers in Pharmacology, 2014).

Columns and labels:
[1] = Pharmacokinetics of total EZE in plasma, single-dose three-period crossover study, EZE alone vs ATO–EZE combination; type: in vivo, human; details: EZE 10 mg coadministered with ATO 80 mg; bioequivalence-based hypothesis
Description: Thirty six healthy Mexicans volunteers of both gender who were between the ages of 18 and 45 (mean ± SEM: 24.71 ± 0.03 years), had heights between 140.0 and 190.0 cm (163.0 ± 0.005 cm), and weighed between 43.50 and 79.50 kg (62.15 ± 1.9 kg) were enrolled in the study. The study protocol was approved by an independent ethics committee as well as by the regulatory authority in Mexico (COFEPRIS), and it was conducted following the ethical principles described in the Declaration of Helsinki. […]
For the determination of both molecules were developed an analytical method, where only once plasma processing is used to obtain both molecules, but the quantification of the analytes was performed on two separate injections ATO in positive electrospray ionization ESI (+) mode and EZE in negative electrospray ionization ESI (-) mode. […]
Chromatographic analysis was performed on UPLC-MS/MS system consisting of Acquity UPLC coupled to a tandem mass spectrometry detector XEVO-TQS (Waters, USA) and Acquity UPLC BEH C18 (1.7 μm, 2.1 × 100 mm) column (Waters, USA). […] MRM data were acquired and analyzed through MassLynx software (Waters, USA). […]

[2] = cited from earlier work; for terminal elimination half-life: the drug and its metabolite, ref Ezzet et al., 2001
[3] = system: major drug metabolizing enzymes (CYP450); design: method as in van Heek and Davis, 2002; details: ref van Heek and Davis, 2002; cited from earlier work
[4] = system: cholesterol and triglyceride levels; details: cited from earlier work
[5] = cited from earlier work
[6] = dose of 10 mg, ref Kosoglou et al. (2002)
[7] = oral administration, ref van Heek et al., 2000, Patrick et al., 2002, Malloy and Kane, 2007, Mahley and Bersot, 2008
[8] = hyperlipidemic patients, dose dependent, ref Nawrocki et al., 1995, Heinonen et al., 1996

Row | SMILES | pharmacokinetic drug–drug interaction (on EZE) [1] | Cmax of EZE [2, 6] [ng/mL] | area under the curve to the end point of EZE [2, 6] [ng·h/mL] | fraction biotransformed into glucuronide active metabolite ([2]; ref Kosoglou et al. (2002)) [%] | terminal elimination half-life [2] [h] | effect on the activity of major drug metabolizing enzymes (CYP450) [3] | time of first peak blood level (dual peak, enterohepatic recirculation) [2, 7] [h] | time of second peak blood level (dual peak, enterohepatic recirculation) [2, 7] [h] | reduction of colesterol and triglycerides, significantly larger than equivalent doses of other statin drugs ([4]; P ≤ 0.01, ref Jones et al., 1998) | lowering of cholesterol levels [4, 8] | lowering of triglyceride levels [4, 8] | intra-subject variability ([5]; ref European Medicines Agency [EMEA] (2010)) [%] | share of circulating inhibitory activity for HMG-CoA reductase attributed to active metabolites (ortho- and parahydroxy ATO) ([5]; ref Pfizer Inc. Lipitor®, 2009)
1 | O=C1[C@H](CC[C@H](O)c2ccc(F)cc2)[C@@H](c2ccc(O)cc2)N1c1ccc(F)cc1 [EZE, Ezetimibe] | no relevant pharmacokinetic drug–drug interaction | 64.2 to 73.6 | 440 to 722 | > 80 | 20 to 30 | no effect |  |  |  |  |  |  | 
2 | O=C(O)[C@H]1O[C@@H](Oc2ccc([C@@H]3[C@@H](CC[C@H](O)c4ccc(F)cc4)C(=O)N3c3ccc(F)cc3)cc2)[C@H](O)[C@@H](O)[C@@H]1O [EZE-G] |  |  |  |  | 20 to 30 |  | 4 to 6 | 10 to 12 |  |  |  |  | 
3 | CC(C)c1c(C(=O)Nc2ccccc2)c(-c2ccccc2)c(-c2ccc(F)cc2)n1CC[C@@H](O)C[C@@H](O)CC(=O)O [ATO, Atorvastatin] |  |  |  |  |  |  |  |  | 38–51% | 25–61% | 9–61% | > 30 | Approximately 70%
